The text below walks through data of patent US8481525B2, “Kinase inhibitors and method of treating cancer with same” (University of Health Network, priority 2009, dated 2013).

Experiment [1] concerns the target T1, Aurora A (Homo sapiens, UniProt O14965).
T1 construct: purchased Invitrogen PV3612
T1 sequence (O14965 1-403): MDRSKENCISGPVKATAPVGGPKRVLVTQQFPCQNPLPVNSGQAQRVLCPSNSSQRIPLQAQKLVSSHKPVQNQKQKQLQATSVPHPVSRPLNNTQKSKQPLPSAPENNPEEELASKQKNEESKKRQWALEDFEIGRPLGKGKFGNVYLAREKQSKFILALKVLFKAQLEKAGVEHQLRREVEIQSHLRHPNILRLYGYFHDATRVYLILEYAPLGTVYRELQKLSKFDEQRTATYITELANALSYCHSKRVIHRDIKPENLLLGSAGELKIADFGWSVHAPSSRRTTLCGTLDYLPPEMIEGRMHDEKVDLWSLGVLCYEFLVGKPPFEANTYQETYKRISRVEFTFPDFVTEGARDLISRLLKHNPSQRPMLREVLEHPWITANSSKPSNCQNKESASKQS
Kind of experiment: Aurora A Inhibition Assay (Z-Lyte). It is filed as biochemical. The settings on record: read-out: Aurora A relative inhibition percentage at a dose of 1 μM. As to the method:
Aurora A inhibition was determined using the Z-Lyte assay kit from Invitrogen. The assay was performed using the recommended manufacturer's instructions with 20 μM ATP and 12 nM Aurora A (Invitrogen cat # PV3612). The % inhibition values were determined according to the manufacturer's directions and IC50 values were obtained using a non-linear 4 point logistic curve fit (XLfit4, IDBS)

Experiment [2] has as its system A549 lung cancer cell line. Kind of experiment: Cell growth inhibition, Sulforhodamine B assay (SRB). It is filed as cell-based. As to conditions: Homo sapiens, read-out: Cell Line GI50 Range A-549. As to the method: (§1) The cells were cultured for 5 days before the Sulforhodamine B assay (SRB) was performed to determine the compound's cell growth inhibition activity.
(§2) Sulforhodamine B (purchased from Sigma, Oakville, ON, Canada) is a water-soluble dye that binds to the basic amino acids of the cellular proteins. Thus, colorimetric measurement of the bound dye provides an estimate of the total protein mass that is related to the cell number. the cells are fixed in situ by gently aspirating off the culture media and adding 50 μl ice cold 10% Trichloroacetic Acid (TCA) per well and incubate at 4° C. for 30-60 min, The plates are washed with water five times and allowed to air dry for 5 min. […] Following staining, plates are washed four times with 1% acetic acid to remove unbound dye and then allowed to air dry for 5 min. […] Absorbance is read at 570 nm.
(§3) The percentage (%) of relative growth inhibition was calculated by comparing to DMSO treated only cells (100%). GI50's were determined for compounds with cytotoxic activity. The GI50 was calculated using GraphPad PRISM software (GraphPad Software, Inc., San Diego, Calif., USA).

Experiment [3] relates to HCC1954 basal breast cancer cell line. The experiment is described as above. It is filed as cell-based. The settings on record: Homo sapiens, read-out: Cell Line GI50 Range HCC-1954. As to the method:
as §1, §2, §3

The test system of experiment [4] is MCF-7 luminal breast cancer cell line. The experiment is described as above. It is filed as cell-based. As to conditions: Homo sapiens, MCF7, 120 h, 5 days culture, SRB. As to the method: as §1, §2, §3
For experiment [5], the system named is MDA-MB-468 basal breast cancer cell line. The description is as above. The settings on record: Homo sapiens, read-out: Cell Line GI50 Range MDA-MB-468. It is filed as cell-based. As to the method:
as §1, §2, §3

Experiment [6] relates to SW620 colon cancer cell line. Described as above. The settings on record: Homo sapiens, SW-620, 120 h, 5 days culture, SRB. It is filed as cell-based. As to the method: as §1, §2, §3
The mark [7] stands for this setting: 120 h, A549 lung cancer cell line, 5 days culture, SRB.
The mark [8] stands for this setting: 120 h, HCC1954 basal breast cancer cell line, 5 days culture, SRB.
Setting [9] is: MCF-7 luminal breast cancer cell line, read-out: Cell Line GI50 Range MCF-7.
[10] abbreviates: 120 h, MDA-MB-468 basal breast cancer cell line, 5 days culture, SRB.
[11] abbreviates: SW620 colon cancer cell line, read-out: Cell Line GI50 Range SW-620.

Where two headings read alike, the source gives them in different places. Some results are limits rather than exact numbers.

Take `O=C1Nc2ccccc2[C@@]12C[C@@H]2c1ccc2c(/C=C/c3ccc(CN4CCCC4)cc3)n[nH]c2c1` (racemic) [Example A60, (1R*,2S*)-(E)-2-(3-(4-(pyrolidin-1-ylmethyl)styryl)-1H-indazol-6-yl)spiro[cyclopropane-1,3′-indolin]-2′-one 2,2,2-trifluoroacetate]: the inhibition at 1 µM in experiment [1] (1 μM compound, 20 μM ATP) was greater than 50%.
Same read-out and setting: then `COc1ccc2c(c1)[C@@]1(C[C@@H]1c1ccc3c(/C=C/c4ccc(CN5CCOCC5)cc4)n[nH]c3c1)C(=O)N2` (racemic) [Example A41, (1R*,2S*)-(E)-5′-methoxy-2-(3-(4-(morpholinomethyl)styryl)-1H-indazol-6-yl)spiro[cyclopropane-1,3′-indolin]-2′-one 2,2,2-trifluoroacetate], with greater than 50%.
`COc1ccc2c(c1)[C@@]1(C[C@@H]1c1ccc3c(/C=C/c4cc(F)c(CN5CCOCC5)c(F)c4)n[nH]c3c1)C(=O)N2` (racemic) [Example A217, (1R*,2S*)-(E)-2-(3-(3,5-difluoro-4-(morpholinomethyl)styryl-1H-indazol-6-yl)-5′-methoxyspiro[cyclopropane-1,3′-indolin]-2′-one 2,2,2-trifluoroacetate]: the inhibition at 1 µM in experiment [1] (1 μM compound, 20 μM ATP) was greater than 50%.
Regarding `COc1ccc2c(c1)[C@@]1(C[C@@H]1c1ccc3c(/C=C/c4csc(CN5CCOCC5)c4)n[nH]c3c1)C(=O)N2` (racemic) [Example A184, (1R*,2S*)-5′-methoxy-2-(3-((E)-2-(5-(morpholinomethyl)thiophen-3-yl)vinyl)-1H-indazol-6-yl)spiro[cyclopropane-1,3′-indolin]-2′-one 2,2,2-trifluoroacetate], the inhibition at 1 µM in experiment [1] (1 μM compound, 20 μM ATP) is greater than 50%. In addition, the GI50 in experiment [2] (setting [7]) is less than 0.1 µM; in experiment [3] (setting [8]), greater than 10 µM; in experiment [4] (setting [9]) it was 0.1 to 1 µM; in experiment [5] (setting [10]), less than 0.1 µM; in experiment [6] (setting [11]), less than 0.1 µM.
In the case of `CCN1CCN(c2ccc(/C=C/c3n[nH]c4cc([C@@H]5C[C@@]56C(=O)Nc5ccc(OC)cc56)ccc34)cc2)CC1` (racemic) [Example A188, (1R*,2S*)-(E)-2-(3-(4-(4-ethylpiperazin-1-yl)styryl)-1H-indazol-6-yl)-5′-methoxyspiro[cyclopropane-1,3′-indolin]-2′-one 2,2,2-trifluoroacetate], the inhibition at 1 µM in experiment [1] (1 μM compound, 20 μM ATP) is greater than 50%. For the same compound, the GI50 in experiment [2] (setting [7]) was less than 0.1 µM; in experiment [3] (setting [8]) it was 0.1 to 1 µM; in experiment [4] (setting [9]), less than 0.1 µM; in experiment [5] (setting [10]), less than 0.1 µM; in experiment [6] (setting [11]), less than 0.1 µM.
In the case of `COc1ccc2c(c1)[C@@]1(C[C@@H]1c1ccc3c(-c4ccc(N5CCN(C(C)C)CC5)cc4)n[nH]c3c1)C(=O)N2` (racemic) [Example A96, (1R*,2S*)-2-(3-(4-(4-isopropylpiperazin-1-yl)phenyl)-1H-indazol-6-yl)-5′-methoxyspiro[cyclopropane-1,3′-indolin]-2′-one], the inhibition at 1 µM in experiment [1] (1 μM compound, 20 μM ATP) is less than 50%. The GI50 in experiment [2] (setting [7]) was less than 0.1 µM; in experiment [3] (HCC1954, 120 h, HCC1954 basal breast cancer cell line, 5 days culture, SRB), 1 to 10 µM; in experiment [4] (setting [9]), less than 0.1 µM; in experiment [5] (setting [10]), less than 0.1 µM; in experiment [6] (setting [11]) it was less than 0.1 µM.
Consider `O=C1Nc2ccccc2[C@@]12C[C@@H]2c1ccc2c(/C=C/c3ccc(CN4CCCCC4)cc3)n[nH]c2c1` (racemic) [Example A57, (1R*,2S*)-(E)-2-(3-(4-(piperidin-1-ylmethyl)styryl)-1H-indazol-6-yl)spiro[cyclopropane-1,3′-indolin]-2′-one 2,2,2-trifluoroacetate], for which, in experiment [1] (1 μM compound, 20 μM ATP), the inhibition at 1 µM is greater than 50%.
On to `COc1ccc2c(c1)[C@@]1(C[C@@H]1c1ccc3c(-c4ccc(CO)cc4)n[nH]c3c1)C(=O)N2` (racemic) [Example A45, (1R*,2S*)-2-(3-(4-(hydroxymethyl)phenyl)-1H-indazol-6-yl)-5′-methoxyspiro[cyclopropane-1,3′-indolin]-2′-one 2,2,2-trifluoroacetate], for which the GI50 in experiment [2] (setting [7]) is 0.1 to 1 µM; in experiment [3] (setting [8]) it was greater than 10 µM; in experiment [4] (setting [9]), 1 to 10 µM; in experiment [5] (setting [10]) it was 0.1 to 1 µM; in experiment [6] (setting [11]) it was 1 to 10 µM.
Turning to `COc1ccc2c(c1)[C@@]1(C[C@@H]1c1ccc3c(-c4ccc(N5CCN(C)CC5)cc4)n[nH]c3c1)C(=O)N2C` (racemic) [Example A100, (1R*,2S*)-5′-methoxy-1′-methyl-2-(3-(4-(4-methylpiperazin-1-yl)phenyl)-1H-indazol-6-yl)spiro[cyclopropane-1,3′-indolin]-2′-one 2,2,2-trifluoroacetate], the GI50 is less than 0.1 µM in experiment [2] (setting [7]); 1 to 10 µM in experiment [3] (setting [8]); 0.1 to 1 µM in experiment [4] (setting [9]); 0.1 to 1 µM in experiment [5] (setting [10]); less than 0.1 µM in experiment [6] (setting [11]).
`Cc1ccc2c(c1)[C@@]1(C[C@@H]1c1ccc3c(/C=C/c4ccc(CN5CCOCC5)cc4)n[nH]c3c1)C(=O)N2` (racemic) [Example A196, (1R*,2S*)-(E)-5′-methyl-2-(3-(4-(morpholinomethyl)styryl)-1H-indazol-6-yl)spiro[cyclopropane-1,3′-indolin]-2′-one 2,2,2-trifluoroacetate]: the inhibition at 1 µM in experiment [1] is greater than 50%.
As to `O=C1Nc2ccccc2[C@]12C[C@H]2c1ccc2cn[nH]c2c1` (relative stereo) [Example A2, (1R*,2S*)-2-(1H-indazol-6-yl)spiro[cyclopropane-1,3′-indolin]-2′-one], the GI50 in experiment [2] (A549, 120 h) was greater than 10 µM; in experiment [3] (HCC1954, 120 h) it was greater than 10 µM; in experiment [4] (read-out: Cell Line GI50 Range MCF-7, MCF-7 luminal breast cancer cell line) it was greater than 10 µM; in experiment [5] (MDA-MB-468, 120 h), greater than 10 µM; in experiment [6] (read-out: Cell Line GI50 Range SW-620, SW620 colon cancer cell line), greater than 10 µM.
In the case of `Cc1ccc2c(c1)[C@@]1(C[C@@H]1c1ccc3c(-c4ccc(N5CCN(C)CC5)cc4)n[nH]c3c1)C(=O)N2` (racemic) [Example A173, (1R*,2S*)-5′-methyl-2-(3-(4-(4-methylpiperazin-1-yl)phenyl)-1H-indazol-6-yl)spiro[cyclopropane-1,3′-indolin]-2′-one 2,2,2-trifluoroacetate], the GI50 in experiment [2] (setting [7]), in experiment [3] (setting [8]), in experiment [4] (setting [9]), in experiment [5] (setting [10]) and in experiment [6] (setting [11]) was 0.1 to 1 µM in each case.
As for `COc1ccc2c(c1)[C@]1(C[C@@H]1c1ccc3c(-c4ccc(N5CCN(C)CC5)nc4)n[nH]c3c1)C(=O)N2` (relative stereo) [Example A17, (1R*,2R*)-5′-Methoxy-2-(3-(6-(4-methylpiperazin-1-yl)pyridin-3-yl)-1H-indazol-6-yl)spiro[cyclopropane-1,3′-indolin]-2′-one], the inhibition at 1 µM in experiment [1] (1 μM compound, 20 μM ATP) was less than 50%.
For the compound `COc1ccc2c(c1)[C@@]1(C[C@@H]1c1ccc3c(/C=C/c4ccc(N5CCN(C)CC5)cc4)n[nH]c3c1)C(=O)N2` (racemic) [Example A174, (1R*,2S*)-(E)-5′-methoxy-2-(3-(4-(4-methylpiperazin-1-yl)styryl)-1H-indazol-6-yl)spiro[cyclopropane-1,3′-indolin]-2′-one 2,2,2-trifluoroacetate], the GI50 in experiment [2] (setting [7]) is less than 0.1 µM; in experiment [3] (setting [8]) it was 0.1 to 1 µM; in experiment [4] (setting [9]), less than 0.1 µM; in experiment [5] (setting [10]), less than 0.1 µM; in experiment [6] (setting [11]), less than 0.1 µM.
